Calls of active or inactive are those of the source. No cut-off for these calls is given here. Residues, ends and D or L forms follow the SMILES beside them.
Columns and labels:
[1] = test system: Plasmodium gallinaceum; assay: Antiplasmodial activity against mature Plasmodium gallinaceum sporozoites isolated from Aedes aegypti RED assessed as increase in membrane permeability at 60 umol/L after 1 hr by propidium iodide staining-based inverted fluorescence microscopic analysis; assay type: functional
[2] = test system: Plasmodium falciparum; assay: Antiplasmodial activity against Plasmodium falciparum W2 schizonts infected in human erythrocytes assessed as appearance of intracellular ring forms at 10^-8 mol/L after 24 hrs by Diff quick staining-based light microscopic analysis; assay type: functional, organism-based
[3] = Metabolic stability in plasma (unknown origin); assay type: ADME, cell-free

SMILES	Activity [1]	Activity [2]	Stability [3]
CC(C)C[C@H](NC(=O)[C@@H]1CCCN1C(=O)[C@H](CO)NC(=O)[C@H](Cc1ccccc1)NC(=O)[C@H](CO)NC(=O)[C@H](CCCNC(=N)N)NC(=O)[C@@H](NC(=O)[C@@H]1CCCN1C(=O)[C@H](CC(C)C)NC(=O)CNC(=O)[C@@H]1CCCN1C(=O)[C@@H]1CCCN1C(=O)[C@@H](N)CCCNC(=N)N)C(C)C)C(=O)N[C@@H](CCCNC(=N)N)C(N)=O (H-RPPGLPVRSFSPLR-NH2)	Active	inactive	–
CC(C)C[C@@H](NC(=O)[C@H]1CCCN1C(=O)[C@H](NC(=O)[C@@H](CCCNC(=N)N)NC(=O)[C@@H](CO)NC(=O)[C@@H](Cc1ccccc1)NC(=O)[C@@H](CO)NC(=O)[C@H]1CCCN1C(=O)[C@@H](CC(C)C)NC(=O)[C@H](N)CCCNC(=N)N)C(C)C)C(=O)NCC(=O)N1CCC[C@@H]1C(=O)N1CCC[C@@H]1C(=O)N[C@H](CCCNC(=N)N)C(N)=O	–	inactive	Stable
N=C(N)NCCC[C@H](NC(=O)[C@H](Cc1ccccc1)NC(=O)[C@@H]1CCCN1C(=O)[C@H](CO)NC(=O)[C@H](Cc1ccccc1)NC(=O)CNC(=O)[C@@H]1CCCN1C(=O)[C@@H]1CCCN1C(=O)[C@@H](N)CCCNC(=N)N)C(=O)O [BRADYKININ] (H-RPPGFSPFR-OH)	98%	inactive	–
CC(C)C[C@H](NC(=O)[C@@H]1CCCN1C(=O)[C@H](CO)NC(=O)[C@H](CCC(=O)O)NC(=O)[C@H](Cc1ccccc1)NC(=O)[C@H](CCCNC(=N)N)NC(=O)[C@@H](NC(=O)[C@@H]1CCCN1C(=O)[C@H](CC(C)C)NC(=O)CNC(=O)[C@@H]1CCCN1C(=O)[C@@H](N)CCCNC(=N)N)C(C)C)C(N)=O (H-RPGLPVRFESPL-NH2)	inactive	inactive	–
CC[C@H](C)[C@H](NC(=O)[C@H](Cc1ccc(O)cc1)NC(=O)[C@@H](NC(=O)[C@H](CCCNC(=N)N)NC(=O)[C@@H](N)CC(=O)O)C(C)C)C(=O)N[C@@H](Cc1cnc[nH]1)C(=O)N1CCC[C@H]1C(=O)N[C@@H](Cc1ccccc1)C(=O)O [ANGIOTENSIN II]	88%	–	–
CC(C)C[C@@H](N)C(=O)N1CCC[C@@H]1C(=O)N[C@H](CO)C(=O)N[C@H](CCC(=O)O)C(=O)N[C@H](Cc1ccccc1)C(=O)N[C@H](CCCNC(=N)N)C(=O)N[C@@H](C(=O)N1CCC[C@@H]1C(=O)N[C@H](CC(C)C)C(=O)NCC(=O)N1CCC[C@@H]1C(=O)N[C@H](CCCNC(=N)N)C(N)=O)C(C)C	Active	inactive	Stable

Source: ChEMBL document CHEMBL3600367, “Anti-plasmodial activity of bradykinin and analogs” (Bioorg Med Chem Lett, 2015)
